Measurements reported in patent US12172986B2, “Splicing modulator antibody-drug conjugates and methods of use” (EISAI R&D MANAGEMENT CO., LTD., priority 2018, dated 2024).
pIC50: −log10 of the molar value. “And” between values parts separate entries of the source, which are not always exact repeats. Identical values can stand only once.

Experiments:
PC3 cells = experiment: Cell viability, EPHA2-expressing PC3; assay type: cell-based; conditions: for GI50: Homo sapiens, PC-3, corresponding payload alone; for Payload LD50: corresponding payload alone
Method: (§2) HCC1954 (American Type Culture Collection (ATCC)) breast ductal carcinoma cells were plated at 2000 cells/well in flat bottom 96-well tissue culture plates (Corning) in a total volume of 90 μL tissue culture medium supplemented with 10% fetal bovine serum (ThermoFisher Scientific). Cells were treated with a 3-fold serial dilution of compound from 200 nM to 0.03 nM. Each concentration was tested in triplicate. At the time of treatment, a plate of untreated cells was evaluated using CellTiter-Glo®2.0 Luminescent Cell Viability Assay according to the manufacturer's recommendations (Promega; #G9241). CellTiter-Glo® 2.0 reagent was added to the medium, incubated, and assayed on an EnVision Multilabel Reader (PerkinElmer). Values represent time zero (TO). […] Percentage growth inhibition was calculated as: [(T144-T0)/(C-TO)]×100 for concentrations for which T144>/=TO or [(T144-T0)/T0]×100 for concentrations for which T144<TO. The dose response curve plots were generated using Prism 7 (Graphpad) and fit using nonlinear regression analysis and the log(inhibitor) versus response-variable slope (four parameters).

Ad2.1 pre-mRNA splicing = experiment: In vitro splicing (IVS) RT-qPCR, Ad2.1 pre-mRNA, HeLa nuclear extract; assay type: biochemical; conditions: payload of the ADC; read-out: qPCR-IVS-AT S Gmean IC50 (nm) Ad2.1 HELA.2
Method: HeLa nuclear extract preparation: HeLa S3 cell pellets were resuspended in hypotonic buffer (10 mM HEPES pH 7.9, 1.5 mM MgCl2, 10 mM KCl, 0.2 mM PMSF, 0.5 mM DTT) and the suspension was brought up to a total of 5 packed cell volume (PCV). After centrifugation, the supernatant was discarded, and the cells were brought up to 3 PCV with hypotonic buffer and incubated on ice for 10 min. Cells were lysed using a dounce homogenizer and then centrifuged. […] The nuclei were gently mixed for 30 min before centrifuging. The supernatant (nuclear extract) was then dialyzed into storage buffer (20 mM HEPES pH 7.9, 100 mM KCl, 0.2 mM EDTA, 20% glycerol, 0.2 mM PMSF, 0.5 mM DTT). Protein concentration was determined using NanoDrop 8000 UV-Vis spectrophotometer (ThermoFisher Scientific).
IVS: All Ad2-derived sequences (Pellizzoni et al. (1998) Cell 95(5):615-24) were cloned into pcDNA3.1(+) vector (Promega) using 5′ EcoRI and 3′ Xbal restriction sites. The plasmids were linearized using Xbal and used as DNA templates in in vitro transcription reactions. The FtzΔi intron-less plasmid (Luo and Reed (1999) 96(26):14937-42) was linearized using EcoRI. All RNAs were in vitro transcribed and then purified using MEGAScript T7 (Invitrogen) and MegaClear (Invitrogen) kits, respectively. For splicing reactions using Ad2 variant pre-mRNAs, 1 μL reactions were prepared using 8 μg nuclear extracts prepared from HeLa S3, 2 ng pre-mRNA, 0.2 ng FTZΔi, and varying concentrations of compounds or DMSO. After a 15 min pre-incubation at 30° C., 1 μL splicing activation buffer (0.5 mM ATP, 20 mM creatine phosphate, 1.6 mM MgCl2) was added, and the reactions were incubated for 90 min at 30° C. The reactions were then quenched with 13 μL DMSO, and 25 nL was used for RT-qPCR. RT-qPCR reactions were prepared using TaqMan RNA-to-CT 1-step kit (Life Technologies), RNA from splicing reactions, Ad2 (forward: [sequence]; reverse: [sequence]; probe: [sequence]) and Ftz (forward: [sequence]; reverse: [sequence]; probe: [sequence]) mRNA primer-probe sets. Prism 7 (Graphpad) was used for non-linear regression curve fitting of the formed spliced product and normalized to the control (DMSO) sample.

Ad2.2 pre-mRNA splicing = experiment: In vitro splicing (IVS) RT-qPCR, Ad2.2 pre-mRNA, HeLa nuclear extract; assay type: biochemical; conditions: payload of the ADC; read-out: qPCR-IVS-AT S GMean IC50 (nM) Ad2.2 HELA.2
Method: To evaluate payload activity in a cell-free system, an in vitro splicing assay was performed. The payloads were incubated with nuclear extracts and pre-mRNA substrate minigenes.
HeLa nuclear extract preparation: HeLa S3 cell pellets were resuspended in hypotonic buffer (10 mM HEPES pH 7.9, 1.5 mM MgCl2, 10 mM KCl, 0.2 mM PMSF, 0.5 mM DTT) and the suspension was brought up to a total of 5 packed cell volume (PCV). After centrifugation, the supernatant was discarded, and the cells were brought up to 3 PCV with hypotonic buffer and incubated on ice for 10 min. Cells were lysed using a dounce homogenizer and then centrifuged. […]. The nuclei were gently mixed for 30 min before centrifuging. The supernatant (nuclear extract) was then dialyzed into storage buffer (20 mM HEPES pH 7.9, 100 mM KCl, 0.2 mM EDTA, 20% glycerol, 0.2 mM PMSF, 0.5 mM DTT). Protein concentration was determined using NanoDrop 8000 UV-Vis spectrophotometer (ThermoFisher Scientific).
IVS: All Ad2-derived sequences (Pellizzoni et al. (1998) Cell 95(5):615-24) were cloned into pcDNA3.1(+) vector (Promega) using 5′ EcoRI and 3′ Xbal restriction sites. The plasmids were linearized using Xbal and used as DNA templates in in vitro transcription reactions. The FtzΔi intron-less plasmid (Luo and Reed (1999) 96(26):14937-42) was linearized using EcoRI. All RNAs were in vitro transcribed and then purified using MEGAScript T7 (Invitrogen) and MegaClear (Invitrogen) kits, respectively. For splicing reactions using Ad2 variant pre-mRNAs, 1 μL reactions were prepared using 8 μg nuclear extracts prepared from HeLa S3, 2 ng pre-mRNA, 0.2 ng FTZΔi, and varying concentrations of compounds or DMSO. After a 15 min pre-incubation at 30° C., 1 μL splicing activation buffer (0.5 mM ATP, 20 mM creatine phosphate, 1.6 mM MgCl2) was added, and the reactions were incubated for 90 min at 30° C. The reactions were then quenched with 13 μL DMSO, and 25 nL was used for RT-qPCR. RT-qPCR reactions were prepared using TaqMan RNA-to-CT 1-step kit (Life Technologies), RNA from splicing reactions, Ad2 (forward: […]; reverse: […]; probe: […]) and Ftz (forward: […]; reverse: […]; probe: […]) mRNA primer-probe sets. Prism 7 (Graphpad) was used for non-linear regression curve fitting of the formed spliced product and normalized to the control (DMSO) sample. […] In the presence of payload, a decrease in the amount of spliced product was observed.

N87 cells = experiment: Cell viability CellTiter-Glo, N87; assay type: cell-based, human; conditions: unconjugated payload of the ADC
Method: as §2
(§3) HCC1954 (ATCC), 2000 cells/well), N87 (ATCC, 4000 cells/well), SKBR3 (ATCC, 3000 cells/well), and MCF7 (ATCC, 1500 cells/well) cell lines were used.

THP1.1 = experiment: Payload cell potency and lethality CTGlo 72 h, THP1.1; assay type: cell-based; conditions: for CTGlo-AT S GMean LD50 (nM) 72 h THP1.1: payload
MOLP8 cells = experiment: Cell viability, CD138-expressing MOLP8; assay type: cell-based; conditions: for LD50 (nM) (payload) / Rmin (%) (payload): unconjugated payload of the ADC
Method: as §2

[1] = Caco-2 permeability of ADC payload; assay type: in vitro ADME; conditions: human, Caco-2; payload, B-A/A-B; read-out: Eflux ratio
Method: (§1) Integrity of cell monolayer was confirmed by TEER (transepithelial electrical resistance) and Lucifer yellow. Payloads were spiked in duplicate at 10 μM, separately, on both sides of the cell monolayer. Permeability rates from the apical to basolateral (A-B) direction and the basolateral to apical (B-A) direction were determined by sampling aliquots from both chambers immediately after treatment (t=0) and following incubation for 2 hours. Samples were protein precipitated with organic solvent containing internal standard and analyzed by LC-MS/MS (SCIEX; API 5500). The area ratio responses of payload/internal standard over time in both directions were used to generate permeability (cm/see) values. Efflux ratio was calculated by dividing B-A/A-B. Control compounds for low and high permeability and efflux behaved as expected.

MCF7 cells = experiment: Cell viability CellTiter-Glo, HER2-negative MCF7; conditions: unconjugated payload of the ADC
Method: HCC1954 (American Type Culture Collection (ATCC)) breast ductal carcinoma cells were plated at 2000 cells/well in flat bottom 96-well tissue culture plates (Corning) in a total volume of 90 μL tissue culture medium supplemented with 10% fetal bovine serum (ThermoFisher Scientific). Cells were treated with a 3-fold serial dilution of compound from 200 nM to 0.03 nM. Each concentration was tested in triplicate. At the time of treatment, a plate of untreated cells was evaluated using CellTiter-Glo®2.0 Luminescent Cell Viability Assay according to the manufacturer's recommendations (Promega; #G9241). CellTiter-Glo® 2.0 reagent was added to the medium, incubated, and assayed on an EnVision Multilabel Reader (PerkinElmer). Values represent time zero (TO). […] Using the luminescence value at time zero (TO), DMSO control growth (C), and test growth in the presence of compound (T144), the percentage growth was calculated at each of the compound concentrations levels. Percentage growth inhibition was calculated as: [(T144-T0)/(C-TO)]×100 for concentrations for which T144>/=TO or [(T144-T0)/T0]×100 for concentrations for which T144<TO. The dose response curve plots were generated using Prism 7 (Graphpad) and fit using nonlinear regression analysis and the log(inhibitor) versus response-variable slope (four parameters).
as §3

HCC1954 cells = experiment: Cell viability CellTiter-Glo, HCC1954; assay type: cell-based; conditions: unconjugated payload of the ADC
Method: as §2, §3

Caco-2 cells = experiment: Caco-2 permeability of ADC payload; assay type: in vitro ADME; conditions: for Perm. Mean Caco-2 A-B Perm (10e-6 cm/s) / Perm. Mean Caco-2 B-A Perm (10e-6 cm/s): corresponding free payload of the ADC
Method: as §1

SMILES: C/C(=C\c1cc(F)cc(N2CCN(S(=O)(=O)c3cnn(C)c3)CC2)c1)[C@H]1OC(=O)C[C@H](O)CC[C@H](C)[C@@H](OC(=O)N2CCNCC2)/C=C/[C@@H]1C [D28]
- GI50 (PC3 cells): > 400 nM
- Payload LD50 (PC3 cells): >400 nM

SMILES: CC(=O)N1CCC(n2nnc3c(F)cc(/C=C(\C)[C@H]4OC(=O)C[C@H](O)CC[C@H](C)[C@@H](OC(=O)N5CCNCC5)/C=C/[C@@H]4C)cc32)CC1 [D14]
- pIC50 (Ad2.1 pre-mRNA splicing): 8.00
- IC50 (Ad2.2 pre-mRNA splicing): 8.59 nM
- Payload LD50 (N87 cells): >200 nM
- CTGlo-AT S GMean LD50 (nM) 72 h THP1.1 (THP1.1): 25.594 nM
- GI50 (THP1.1; read-out: CTGlo-AT S GMean GI50 (nM) Ad2.2 HELA.2): 3.58 nM
- LD50 (nM) (payload) (MOLP8 cells): 8.5 nM
- Rmin (%) (payload) (MOLP8 cells): −61%
- Payload LD50 (PC3 cells): >400 nM
- efflux ratio at 2 h, 10 μM [1]: 202
- Payload LD50 (MCF7 cells): 77.198 nM
- Payload Rmin (%) (MCF7 cells): −61.886%

SMILES: CC[C@H](O)[C@@H](C)[C@H]1O[C@@H]1C[C@H](C)/C=C/C=C(\C)[C@H]1OC(=O)C[C@H](O)CC[C@@](C)(OC)[C@@H](OC(=O)N2CCNCC2)/C=C/[C@@H]1C [D18, (2S,3S,6S,7R,10R,E)-10-hydroxy-2-((S,2E,4E)-7-((2R,3R)-3-((2R,3S)-3-hydroxypentan-2-yl)oxiran-2-yl)-6-methylhepta-2,4-dien-2-yl)-7-methoxy-3,7-dimethyl-12-oxooxacyclododec-4-en-6-yl piperazine-1-carboxylate]
- pIC50 (Ad2.1 pre-mRNA splicing): 7.90
- IC50 (Ad2.2 pre-mRNA splicing): 12.7 nM
- Payload LD50 (HCC1954 cells): 0.787 nM
- Payload Rmin (%) (HCC1954 cells): −90.055%
- Payload LD50 (N87 cells): 2.993 nM
- CTGlo-AT S GMean LD50 (nM) 72 h THP1.1 (THP1.1): 4.355 nM
- GI50 (PC3 cells): 1.41 nM
- Payload LD50 (PC3 cells): >400 nM
- Payload LD50 (MCF7 cells): 7.697 nM
- Payload Rmin (%) (MCF7 cells): −68.226%

SMILES: CC[C@H](O)[C@@H](C)C1OC1C[C@@](C)(O)/C=C/C=C(\C)[C@H]1OC(=O)C[C@H](O)CC[C@@](C)(OC)[C@@H](OC(=O)N2CCNCC2)/C=C/[C@@H]1C (stereo in doubt) [D1, (2S,3S,6S,7R,10R,E)-10-hydroxy-2-((R,2E,4E)-6-hydroxy-7-((2S,3S)-3-((2R,3S)-3-hydroxypentan-2-yl)oxiran-2-yl)-6-methylhepta-2,4-dien-2-yl)-7-methoxy-3,7-dimethyl-12-oxooxacyclododec-4-en-6-yl piperazine-1-carboxylate]
- pIC50 (Ad2.1 pre-mRNA splicing): 7.76
- IC50 (Ad2.2 pre-mRNA splicing): 15.9 nM
- Payload LD50 (HCC1954 cells): 5.485 nM
- Payload Rmin (%) (HCC1954 cells): −78.579% and −75.579%
- Payload LD50 (N87 cells): >200 nM
- CTGlo-AT S GMean LD50 (nM) 72 h THP1.1 (THP1.1): 41.408 nM
- GI50 (MOLP8 cells; Homo sapiens, MOLP-8, unconjugated payload of the ADC, read-out: GI50 (nM) (payload)): 6.88 nM
- LD50 (nM) (payload) (MOLP8 cells): 25.712 nM
- Rmin (%) (payload) (MOLP8 cells): −100.248%
- Payload LD50 (PC3 cells): >400 nM
- efflux ratio at 2 h, 10 μM [1]: 14.6
- Perm. Mean Caco-2 A-B Perm (10e-6 cm/s) (Caco-2 cells): 0.14 10e-6 cm/s
- Perm. Mean Caco-2 B-A Perm (10e-6 cm/s) (Caco-2 cells): 2.05 10e-6 cm/s
- Eflux ratio (Caco-2 cells; payload, B-A/A-B): 14.643
- Payload LD50 (MCF7 cells): 135.42 nM
- Payload Rmin (%) (MCF7 cells): −63.414%

SMILES: CC[C@H](O)[C@@H](C)[C@H]1O[C@@H]1C[C@@](C)(O)/C=C/C=C(\C)[C@H]1OC(=O)C[C@H](O)CC[C@@](C)(OC(=O)N2CCNCC2)[C@@H](OC(C)=O)/C=C/[C@@H]1C [D8, (2S,3S,6S,7R,10R,E)-6-acetoxy-10-hydroxy-2-((R,2E,4E)-6-hydroxy-7-((2R,3R)-3-((2R,3S)-3-hydroxypentan-2-yl)oxiran-2-yl)-6-methylhepta-2,4-dien-2-yl)-3,7-dimethyl-12-oxooxacyclododec-4-en-7-yl piperazine-1-carboxylate]
- pIC50 (Ad2.1 pre-mRNA splicing): 7.94
- IC50 (Ad2.2 pre-mRNA splicing): 9.03 nM
- Payload LD50 (HCC1954 cells): 11.175 nM
- Payload Rmin (%) (HCC1954 cells): −80.463%
- Payload LD50 (N87 cells): >200 nM
- CTGlo-AT S GMean LD50 (nM) 72 h THP1.1 (THP1.1): 38.969 nM
- Payload LD50 (PC3 cells): 177.783 nM
- efflux ratio at 2 h, 10 μM [1]: 15.9
- Perm. Mean Caco-2 A-B Perm (10e-6 cm/s) (Caco-2 cells): 0.128 10e-6 cm/s
- Perm. Mean Caco-2 B-A Perm (10e-6 cm/s) (Caco-2 cells): 2.027 10e-6 cm/s
- Payload LD50 (MCF7 cells): 181.521 nM
- Payload Rmin (%) (MCF7 cells): −62.957%
